Measurements: patent publication US20180125068A1, “OCTANOIC, NONANOIC AND DECANOIC FATTY ACIDS WITH PYRETHROID ADULTICIDES” (priority 2016, published 2018)
Where two headings read alike, the source gives them in different places.

How the values were obtained:
[1] = tested on: Aedes aegypti resistant to permethrin (Key West strain); experiment: Wind tunnel bioassay, various pyrethroids (Example 7); assay type: in vivo; details: pyrethroid alone 0.5% A.I., C8910 0%, 24 hours post-spray, mean
From the text: This exposed 80 caged A. aegypti to the spray. Each test was replicated four times.

[2] = tested on: pyrethroid susceptible Aedes aegypti; experiment: CDC bottle bioassay, susceptible strain; assay type: in vivo
Description: (§1) The following bioassays were performed to determine how pyrethroid susceptible and pyrethroid resistant Aedes aegypti responded to exposure to permethrin and the fatty acids mixture, separately and combined. The standard Centers for Disease Control (“CDC”) bottle bioassay method was used. The testing was conducted at Centro Internacional de Entrenamiento e Investigaciones Médicas (“CIDEIM”) in Colombia with susceptible and resistant Aedes aegypti. The compounds were diluted in acetone, added to the bottles, and bottles were rolled to coat them internally until dry. Susceptible and resistant mosquitoes were exposed inside the treated bottles.
(§2) Bottle bioassays assess susceptibility by measuring time-to-death of mosquitoes exposed in bottles coated internally with a “diagnostic concentration” of the test compound.

[3] = tested on: pyrethroid resistant Aedes aegypti; experiment: CDC bottle bioassay, resistant strain; assay type: in vivo; details: bottle coated with diagnostic concentration, n=5
Description: as §1, §2

[4] = tested on: Aedes aegypti resistant and susceptible to permethrin; experiment: WHO wind tunnel bioassay (Example 4); assay type: in vivo; details: 24 hour mortality
Description: In this bioassay, the standard WHO wind tunnel bioassay was used by CIDEIM. Aedes aegypti that were known to be resistant and susceptible to permethrin were used in the studies. […] solutions were prepared with the following ratios of C8, 9, 10 fatty acids mixture to permethrin: 2:1 (0.67% C8910+0.33% permethrin); 1:1 (0.5% C8910+0.5% permethrin); and 1:2 (0.33% C8910+0.67% permethrin). A one percent permethrin formulation was tested as well as a C8, 9, 10 fatty acids mixture.
The solutions were diluted in acetone to 1%, 0.1%, 0.01%, 0.001%, 0.0001%, and 0.00001%. Then 0.5 ml of each dilution was sprayed into the wind tunnel. This exposed 20 caged mosquitos to the spray. Each test was replicated three times. The 24 hour mortality was then observed. This type of assay is desirable because it tests the compounds without being formulated.

[5] = tested on: Aedes aegypti resistant to permethrin (Key West strain); details: observed, C8910 0%
From the text: (§3) In this bioassay, Aedes aegypti known to be resistant to permethrin (Key West strain) were exposed to C8, 9, 10 alone, permethrin alone, and combinations of C8, 9, 10 and permethrin at 1:5, 1:2, 1:1, 2:1 and 5:1 ratios in a standard wind tunnel bioassay. The actives were suspended in 1 milliliter oil-based ultra-low volume sprays and sprayed into the wind tunnel. This exposed 80 caged A. aegypti to the spray. Each test was replicated four times. Fifteen-minute, one-hour and twenty-four hour mortality of the resistant A. aegypti was then observed.
(§4) Synergy was calculated using Abbott's synergy equation described in Levy Y et al., The joint action of fungicides in mixtures: comparison of two methods for synergy calculation, Bulletin OEPP/EPPO Bulletin, 1986, 16, 651-657. Specifically, a ratio greater than 1.0 of observed to expected percent mortality for combinations of two pesticides is evidence of synergy. Expected % mortality was calculated using the formula % Cexp=A+B−[…] where A is percent mortality of A. aegypti exposed to C8, 9, 10, B is percent mortality of A. aegypti exposed to permethrin and Cexp is expected percent mortality of A. aegypti exposed to a combination of C8, 9, 10 and permethrin.

[6] = tested on: A. aegypti susceptible to permethrin (Benzon research strain); details: observed, C8910 0%
From the text: as §3, §4
In this assay, A. aegypti known to be susceptible to permethrin (Benzon research strain) were exposed to C8, 9, 10 alone, permethrin alone, and combinations of C8, 9, 10 and permethrin at 1:5, 1:2, 1:1, 2:1 and 5:1 ratios in a standard wind tunnel bioassay identical to that described above.

[7] = tested on: Cimex lectularius resistant to deltamethrin (Lex8 strain); details: observed, d-Phenothrin 0.375% alone
Description: as §4
(§5) The actives were suspended in 1 milliliter oil-based ultra-low volume sprays and sprayed into the wind tunnel. This exposed 10 adult male beg bugs to the spray. Each test was replicated three times. 1, 2, 3 and 4-day mortality of the bed bugs was then observed.

[8] = tested on: Cimex lectularius susceptible to insecticides (Harold Harlan strain); details: observed, d-Phenothrin 0.25% alone
Description: as §4, §5

[9] = susceptible strain, bottle coated with diagnostic concentration, n=5

SMILES: CC(C)=C[C@@H]1[C@@H](C(=O)O[C@H](C#N)c2cccc(Oc3ccccc3)c2)C1(C)C (relative stereo) [d,d,trans-cyphenothrin, d,d,trans-Cyphenothrin]
- % Mortality 24 hour [1]: 76%

SMILES: CC1(C)C(C(=O)OC(C#N)c2cccc(Oc3ccccc3)c2)C1(C)C (centres unmarked) [Fenpropathrin]
- mortality at 0.5 % strength ([1]; Aedes aegypti): 65%

SMILES: CC1(C)C(C=C(Cl)Cl)C1C(=O)OCc1cccc(Oc2ccccc2)c1 (centres unmarked) [Permethrin]
- mortality ([2]; susceptible mosquitos, at about 80 minutes, FIG. 1): ~100%
- LT50 [2, 9]: 18.8 min
- LT99 [2, 9]: 99.3 min
- LT50 [3]: 73.5 min
- LT99 [3]: 306.7 min
- mortality rate of resistant compared with susceptible mosquitos [4]: lower mortality rates
- % Mortality ([5]; 15 min, Permethrin 1.6%): 28.1%
- % Mortality ([5]; 15 min, Permethrin 4.0%): 34.4%
- % Mortality ([5]; 1 hour, Permethrin 1.6%): 41.6%
- % Mortality ([5]; 1 hour, Permethrin 4.0%): 49.4%
- % Mortality ([5]; 24 hour, Permethrin 1.6%): 55.0%
- % Mortality ([5]; 24 hour, Permethrin 4.0%): 63.4%
- % Mortality ([6]; 15 min, Permethrin 0.4%): 4.4%
- % Mortality ([6]; 15 min, Permethrin 1.0%): 26.9%
- % Mortality ([6]; 1 hour, Permethrin 0.4%): 34.1%
- % Mortality ([6]; 1 hour, Permethrin 1.0%): 54.4%
- % Mortality ([6]; 24 hour, Permethrin 0.4%): 42.5%
- % Mortality ([6]; 24 hour, Permethrin 1.0%): 65.3%

SMILES: CC(C)=CC1C(C(=O)OCc2cccc(Oc3ccccc3)c2)C1(C)C (stereo not drawn) [d-Phenothrin, Sumithrin (d-phenothrin)]
- % Mortality ([7]; 1 day): 6.7%
- % Mortality ([7]; 2 days): 10.0%
- % Mortality ([8]; 1 day): 0.0%
- % Mortality ([8]; 2 days): 0.0%
- % Mortality ([8]; 3 days): 46.7%
- % Mortality ([8]; 4 days): 56.7%
